Values of other authors, collected in US20170119704A1, “TREATMENT OF COGNITIVE IMPAIRMENT” (Ovid Therapeutics Inc., priority 2015, published 2017).

Settings: in vivo

CN(C)CCO/N=C(/C=C/c1ccc(O)cc1)c1ccccc1F [Eplivanserin, (1Z,2E)-1-(2-fluorophenyl)-3-(4-hydroxyphenyl)-prop-2-en-1-one-O-(2-dimethylaminoethyl)-oxime]
absorption (well absorbed): > 70%
